The values that follow come from ChEMBL document CHEMBL1614632, “Trend analysis of a database of intravenous pharmacokinetic parameters in humans for 670 drug compounds” (Drug Metab Dispos, 2008).

A short description of data set [1]: clinical. As to conditions: human, in vivo, iv.
The nature of data set [2]: clinical. As to conditions: human, in vivo, iv, CL.
The nature of data set [3]: clinical. As to conditions: human, in vivo, iv, t1/2.
Data set [4] in a line: clinical. As to conditions: human, in vivo, iv, Vdss.
The nature of data set [5]: clinical. As to conditions: human, in vivo, iv. This is another data set of the same source.

Numbered stars: 1 amine (or outer) side, 2 acyl side, 3 side chain; on linkers, the order of the positions; unused ones are H or OH. Bridge positions count the residues as written; N and C are the ends. Square brackets hold non-standard residues; d marks the D form. Peptide text beside a SMILES is read from it. * marks the point of attachment. hTyr(3S-OH,4S-OH,3'-OSO3H) = N[C@H](C(=O)O)[C@H](O)[C@@H](O)c1ccc(O)c(OS(=O)(=O)O)c1; Orn(4R-OH,5R-OH) = O=C([C@H](C[C@@H](O)[C@@H](O)N[*:3])N[*:1])[*:2]; Pro(3S-OH,4S-Me) = C[C@H]1CN[C@H](C(=O)O)[C@H]1O; X1 = CCCCCOc1ccc(-c2cc(-c3ccc(C(=O)*)cc3)no2)cc1; Gln(3R-OH) = NC(=O)C[C@@H](O)[C@H](N)C(=O)O; Hyp = O=C(O)[C@@H]1C[C@@H](O)CN1

As to `Cc1cccc(C)c1OCC(C)N` (stereo not given) [MEXILETINE], the mean residence time MRT in data set [1] was determined as 12 h. In data set [2], this molecule came in with a clearance of 8.3 mL/min/kg. Besides, the half-life in data set [3] is 9.9 h. The same molecule had a Vd in data set [4] of 5.9 L/kg. For the same molecule, in data set [5], the fraction unbound stood at 0.36.

In data set [1], `CC1(C)S[C@@H]2[C@H](NC(=O)[C@H](NC(=O)N3CCN(S(C)(=O)=O)C3=O)c3ccccc3)C(=O)N2[C@H]1C(=O)O` [MEZLOCILLIN] gave an MRT of 0.71 h. The molecule also yielded a clearance in data set [2] of 2.1 mL/min/kg. In data set [3], this molecule had a half-life of 1.2 h. The Vd in data set [4] amounted to 0.09 L/kg. This molecule came in with a fraction unbound in data set [5] of 0.7.

Take `COCC(=O)O[C@]1(CCN(C)CCCc2nc3ccccc3[nH]2)CCc2cc(F)ccc2[C@@H]1C(C)C` [MIBEFRADIL]: in data set [1], the MRT was 13 h. For the same molecule, in data set [2], the clearance is 4 mL/min/kg. Also, in data set [3], the half-life is 13 h. Further, the Vd in data set [4] was found to be 3.1 L/kg. The molecule further registered a fraction unbound in data set [5] of 0.005.

`CCCCCOc1ccc(-c2cc(-c3ccc(C(=O)N[C@H]4C[C@@H](O)[C@@H](O)NC(=O)[C@@H]5[C@@H](O)[C@@H](C)CN5C(=O)[C@H]([C@H](O)CC(N)=O)NC(=O)[C@H]([C@H](O)[C@@H](O)c5ccc(O)c(OS(=O)(=O)O)c5)NC(=O)[C@@H]5C[C@@H](O)CN5C(=O)[C@H]([C@@H](C)O)NC4=O)cc3)no2)cc1` [MICAFUNGIN] (X1-[Orn(4R-OH,5R-OH)]T[Hyp][hTyr(3S-OH,4S-OH,3'-OSO3H)][Gln(3R-OH)][Pro(3S-OH,4S-Me)]; lactam 1-C): the MRT in data set [1] stood at 21 h. The same molecule came in with a clearance in data set [2] of 0.17 mL/min/kg. Also, in data set [3], the half-life was 16 h. Moreover, in data set [4], the Vd turned out to be 0.21 L/kg. This molecule also came in with a fraction unbound in data set [5] of 0.0023.

Turning to `O=C1c2c(O)ccc(O)c2C(=O)c2c(NCCNCCO)ccc(NCCNCCO)c21` [MITOXANTRONE], the mean residence time MRT in data set [1] is 25 h. For the same molecule, in data set [2], the clearance came out at 7.9 mL/min/kg. The molecule also had a half-life in data set [3] of 53 h. Further, the Vd in data set [4] was determined as 12 L/kg. For the same molecule, the fraction unbound in data set [5] was 0.25.

As to `CO[C@@]1(NC(=O)C(C(=O)O)c2ccc(O)cc2)C(=O)N2C(C(=O)O)=C(CSc3nnnn3C)CO[C@@H]21` (stereo not given in full) [MOXALACTAM], the mean residence time (MRT) in data set [1] was found to be 3.9 h. The clearance in data set [2] worked out at 0.72 mL/min/kg. In addition, the half-life in data set [3] is 2.9 h. Moreover, the distribution volume (Vd) in data set [4] amounted to 0.17 L/kg. The molecule further gave a fraction unbound in data set [5] of 0.39.

`CC(C)(C)NCC(O)COc1cccc2c1CC(O)C(O)C2` (stereo not given) [NADOLOL] came in with an MRT in data set [1] of 11 h. The same molecule yielded a clearance in data set [2] of 2.9 mL/min/kg. In data set [3], this molecule showed a half-life of 9.2 h. The molecule also showed a volume of distribution (Vd) in data set [4] of 1.9 L/kg. Also, the unbound share (fraction unbound) in data set [5] is 0.14.

On to `CCOc1ccc2ccccc2c1C(=O)N[C@@H]1C(=O)N2[C@@H]1SC(C)(C)[C@@H]2C(=O)O` [NAFCILLIN], for which the MRT in data set [1] was 1.1 h. Moreover, the clearance in data set [2] came to 3.3 mL/min/kg. The same molecule showed a half-life in data set [3] of 0.7 h. This molecule displayed a Vd in data set [4] of 0.22 L/kg. Also, the fraction unbound in data set [5] came to 0.13.

For `CCN[C@@H]1C[C@H](N)[C@@H](O[C@H]2OC(CN)=CC[C@H]2N)[C@H](O)[C@H]1O[C@H]1OC[C@](C)(O)[C@H](NC)[C@H]1O` [NETILMICIN], in data set [1], the MRT was found to be 2.2 h. The same molecule displayed a clearance in data set [2] of 0.55 mL/min/kg. Moreover, in data set [3], the half-life is 3.2 h. Besides, the distribution volume (Vd) in data set [4] was determined as 0.073 L/kg. The fraction unbound in data set [5] was determined as 1.

Molecule `CCOC(=O)C1=C(C)NC(C)=C(C(=O)OC)C1c1cccc([N+](=O)[O-])c1` (stereo not given) [NITRENDIPINE] had an MRT in data set [1] of 4.1 h. Besides, the clearance in data set [2] stood at 25 mL/min/kg. In addition, the half-life in data set [3] was 8.2 h. In addition, the Vd in data set [4] was 6.1 L/kg. The fraction unbound in data set [5] was found to be 0.02.

In turn, `COc1cc([C@@H]2c3cc4c(cc3C(OC3OC5COC(C)OC5C(O)C3N)C3COC(=O)[C@@H]32)OCO4)cc(OC)c1O` (stereo not given in full) [NK-611] showed an MRT in data set [1] of 17 h. In data set [2], this molecule came in with a clearance of 0.4 mL/min/kg. The molecule also gave a half-life in data set [3] of 14 h. The same molecule gave a Vd in data set [4] of 0.3 L/kg. The same molecule had a free fraction (fraction unbound) in data set [5] of 0.013.

Consider `Cc1onc(-c2ccccc2)c1C(=O)N[C@@H]1C(=O)N2[C@@H]1SC(C)(C)[C@@H]2C(=O)O` [OXACILLIN], for which the mean residence time (MRT) in data set [1] was determined as 0.5 h. Besides, the clearance in data set [2] was 6.3 mL/min/kg. Besides, in data set [3], the half-life was 0.7 h. In data set [4], this molecule returned a distribution volume (Vd) of 0.19 L/kg. The free fraction (fraction unbound) in data set [5] was determined as 0.07.

Take `CN(C)[C@@H]1C(O)=C(C(N)=O)C(=O)[C@@]2(O)C(O)=C3C(=O)c4c(O)cccc4[C@@](C)(O)[C@H]3[C@H](O)[C@@H]12` [OXYTETRACYCLINE]: in data set [1], the MRT was determined as 12 h. The clearance in data set [2] worked out at 2 mL/min/kg. Also, the half-life in data set [3] was 10 h. Further, the volume of distribution (Vd) in data set [4] was determined as 1.7 L/kg. Moreover, in data set [5], the fraction unbound was 0.9.

Consider `CC(=O)O[C@H]1C(=O)[C@@]2(C)[C@H]([C@H](OC(=O)c3ccccc3)[C@]3(O)C[C@H](OC(=O)[C@H](O)[C@@H](NC(=O)c4ccccc4)c4ccccc4)C(C)=C1C3(C)C)[C@]1(OC(C)=O)CO[C@@H]1C[C@@H]2O` [PACLITAXEL], for which the mean residence time (MRT) in data set [1] was found to be 7.8 h. In data set [2], this molecule showed a clearance of 6.4 mL/min/kg. Also, the half-life in data set [3] was 11 h. The molecule also had a Vd in data set [4] of 3 L/kg. The molecule further had an unbound share (fraction unbound) in data set [5] of 0.12.

In data set [1], `O=C1c2cccc3c2[C@H](CCC3)CN1[C@@H]1CN2CCC1CC2` [PALONOSETRON] returned an MRT of 40 h. This molecule gave a clearance in data set [2] of 2.6 mL/min/kg. Also, the half-life in data set [3] was 39 h. The Vd in data set [4] stood at 6.3 L/kg. For the same molecule, in data set [5], the fraction unbound came to 0.38.

In the case of `Fc1ccc([C@@H]2CCNC[C@H]2COc2ccc3c(c2)OCO3)cc1` [PAROXETINE], the MRT in data set [1] stood at 17 h. The molecule also came in with a clearance in data set [2] of 18 mL/min/kg. The half-life in data set [3] is 13 h. The molecule further yielded a Vd in data set [4] of 18 L/kg. The molecule further showed a fraction unbound in data set [5] of 0.06.

For the molecule `CC1(C)S[C@@H]2[C@H](NC(=O)Cc3ccccc3)C(=O)N2[C@H]1C(=O)O` [PENICILLIN G], the mean residence time MRT in data set [1] worked out at 0.58 h. Moreover, the clearance in data set [2] turned out to be 6.9 mL/min/kg. Moreover, in data set [3], the half-life was 0.7 h. This molecule displayed a Vd in data set [4] of 0.24 L/kg. In data set [5], this molecule displayed a fraction unbound of 0.4.

With `CCCC(C)C1(CC)C(=O)NC(=O)NC1=O` (stereo not given) [PENTOBARBITAL], in data set [1], the MRT came to 32 h. The clearance in data set [2] came to 0.47 mL/min/kg. For the same molecule, in data set [3], the half-life is 22 h. Besides, the Vd in data set [4] was 0.91 L/kg. Further, the fraction unbound in data set [5] was 0.39.

As for `OCCN1CCN(CCCN2c3ccccc3Sc3ccc(Cl)cc32)CC1` [PERPHENAZINE], the MRT in data set [1] stood at 11 h. In data set [2], this molecule yielded a clearance of 27 mL/min/kg. In addition, the half-life in data set [3] is 9.4 h. For the same molecule, the Vd in data set [4] turned out to be 18 L/kg. Moreover, the free fraction (fraction unbound) in data set [5] turned out to be 0.07.

With `CC(Oc1ccccc1)C(=O)N[C@@H]1C(=O)N2[C@@H]1SC(C)(C)[C@@H]2C(=O)O` (stereo not given in full) [PHENETHICILLIN], the mean residence time MRT in data set [1] was found to be 1.2 h. In data set [2], this molecule displayed a clearance of 4.2 mL/min/kg. In addition, in data set [3], the half-life was 0.91 h. Moreover, in data set [4], the Vd was 0.3 L/kg. Also, the fraction unbound in data set [5] amounted to 0.25.

In the case of `CC(=O)O[C@H]1C[C@]2(C)CC[C@H]3[C@@H]4C[C@H](N5CC[N+](C)(C)CC5)[C@H](OC(C)=O)[C@@]4(C)CC[C@@H]3[C@@]2(C)C[C@@H]1N1CC[N+](C)(C)CC1.[Br-].[Br-]` [PIPERCURONIUM], in data set [1], the MRT is 1.9 h. In data set [2], this molecule showed a clearance of 3 mL/min/kg. In addition, the half-life in data set [3] was 1.9 h. The volume of distribution (Vd) in data set [4] is 0.35 L/kg. Moreover, the fraction unbound in data set [5] worked out at 0.98.

As a reminder, the MRT is the average time that molecules of a dose stay in the body. The clearance is a measure of how efficiently the substance is removed, as volume per time. For orientation: half-life means the time needed for the level to fall by half in the phase considered. A high value points to slow loss. In general, Vd refers to a proportionality between amount in the body and measured concentration, not a real space. One may read the fraction unbound as free concentration divided by total concentration. A low value points to little free substance.
